Consider 9 molecules from patent publication US12247032B2, “Substituted pyrazolo[1,5-a]pyrimidines as inhibitors of JAK kinases” (Genentech, Inc., priority 2019, dated 2025).

Assay [1] concerns JAK1 pathway (P-STAT6 in TF-1 human erythroleukemia cells + IL-13). Description: P-STAT6 TF-1+Interleukin-13 (IL-13) assay. The assay is classed as cell-based. The following applies: Homo sapiens, TF-1, 0.5 h, TF-1 cells, 30 minutes compound, IL-13 10 minutes; IC50 by four-parameter fit; read-out: Cellular PSTAT6 TF-1 + IL13. Here is the method: TF-1 human erythroleukemia cells (ATCC®; Manassas, VA; Catalog No. CRL-2003™) were grown in Roswell Park Memorial Institute (RPMI) medium supplemented with 10% heat-inactivated fetal bovine serum (FBS), 2 ng/mL granulocyte-macrophage colony-stimulating factor, 1× non-essential amino acids (NEAA), and 1 mM sodium pyruvate. The day before the assay, the cultures were transferred to Opti-MEM™, 1×NEAA, 1 mM sodium pyruvate, and 0.5% charcoal-stripped FBS (starve medium). Inhibitor stock solutions (5 mM in DMSO) were serially diluted 1:2 in DMSO to generate a 10-point concentration titration (at 500× test concentration), which was further diluted by a 50-fold dilution in Assay Medium (RPMI containing 1×NEAA and 1 mM sodium pyruvate) to generate a 10× concentration titration (in 2% DMSO). The cells (300,000 cells/well in 35 μL of Assay Medium) were seeded in 384-well Greiner plates. Diluted inhibitor at 10× concentration (5 μL) was added to the cells and the plates were incubated for 30 minutes at 37° C. in a humidified incubator. Cells were stimulated with the human recombinant cytokine at the respective EC90 concentrations, as previously determined for each individual lot. For the phosphorylated signal transducer and activator of transcription 6 (P-STAT6) TF-1+Interleukin-13 (IL-13) assay, 10 μL of 250 ng/mL IL-13 (R&D Systems; Minneapolis, MN) was added to the cells, which were then incubated for 10 minutes at 37° C. For the P-STAT5 TF-1+Erythropoietin (EPO) assay, 10 μL of 110 IU/mL EPO (Gibco Life Technologies, Catalog No. PHC2054) was added to the cells, which were then incubated for 30 min at 37° C. For both assays, the incubation was followed by addition to the cells of 5 μL of ice-cold 10× cell lysis buffer (Cell Signaling Technologies; Danvers, MA; Catalog No. 9803S) containing 1 mM phenylmethylsulfonyl fluoride (PMSF). Assay plates were frozen at −80° C. for a minimum of 1 hour. In the IL-13 assay, P-STAT6 was measured by coating goat anti-rabbit (GAR) plates (Meso Scale Discovery [MSD]; Rockville, MD; Catalog No. MSD L21RA-1) with rabbit anti-human total STAT6 antibody (Cell Signaling Technologies; Catalog No. 9362S), incubating the cell lysates in the coated plates overnight at 4° C., and then detecting with mouse anti-P-STAT6 (Tyr641) Clone 16E12 antibody (MilliporeSigma; Burlington, MA; Catalog No. 05-590, custom labeled by MSD with SULFO-tag) using standard MSD plate processing, washing, and detection protocols. In the EPO assay, P-STAT5 was detected using the phospho-STAT5a,b Whole Cell Lysate Kit (MSD; Catalog No. K150IGD-1). The electrochemiluminescence (ECL) signal of wells was read on the MESO SECTOR S600 (MSD) reader.
Data analysis was performed by subtracting the negative control (cytokine stimulated and 20 μM control inhibitor-treated cells) mean ECL value from the ECL value of all wells, determining percent of control for test compound well ECL values relative to the positive control (cytokine stimulated and DMSO-treated cells) mean ECL value, and determining the IC50 for test compounds with a four-parameter logistic fit model as shown in Equation 4.

Assay [2] has as its system JAK1 (IL-13-stimulated STAT6 phosphorylation in BEAS-2B cells). Description: P-STAT6 BEAS-2B+IL-13 cell assay. The format is cell-based, human. To be noted: Homo sapiens, BEAS-2B, 1 h, 1 hour compound, IL-13 15 minutes, IC50 by four-parameter fit, read-out: Cellular JAK1 PSTAT6 BEAS2B + IL13. The essentials: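 BEAS-2B human bronchial epithelial cells preincubated 1 h at 37 °C with compound, then stimulated with human recombinant IL-13 for 15 min. Phospho-STAT6 (Tyr641) in lysates measured by MSD electrochemiluminescence immunoassay; IC50 from a four-parameter logistic fit of percent of control.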

With `CN1CC(n2nnc(Cn3cc(NC(=O)c4cnn5cccnc45)c(-c4cc(C5CC5)ccc4OC(F)F)n3)n2)C1` [Example 23, N-[3-[5-cyclopropyl-2-(difluoromethoxy)phenyl]-1-[[2-(1-methylazetidin-3-yl)tetrazol-5-yl]methyl]pyrazol-4-yl]pyrazolo[1,5-a]pyrimidine-3-carboxamide], the IC50 came out at 7.4 nM in assay [1] and 17 nM in assay [2].

For the molecule `CN1CCC(n2nnnc2Cn2cc(NC(=O)c3cnn4cccnc34)c(-c3cc(OC(F)F)ccc3OC(F)F)n2)C1` (stereo not drawn) [Example 26, N-[3-[2,5-bis(difluoromethoxy)phenyl]-1-[[1-(1-methylpyrrolidin-3-yl)tetrazol-5-yl]methyl]pyrazol-4-yl]pyrazolo[1,5-a]pyrimidine-3-carboxamide], the IC50 amounted to 11 nM in assay [1] and 16 nM in assay [2].

`CN(CCN1CC(n2nnc(Cn3cc(NC(=O)c4cnn5cccnc45)c(-c4cc(OC(F)F)ccc4OC(F)F)n3)n2)C1)C(=O)OC(C)(C)C` [Example 31, tert-butyl N-[2-[3-[5-[[3-[2,5-bis(difluoromethoxy)phenyl]-4-(pyrazolo[1,5-a]pyrimidine-3-carbonylamino)pyrazol-1-yl]methyl]tetrazol-2-yl]azetidin-1-yl]ethyl]-N-methyl-carbamate]: the IC50 stood at 13 nM in assay [1] and 22 nM in assay [2].

Turning to `CN(C)CCN1CC(n2nnc(Cn3cc(NC(=O)c4cnn5cccnc45)c(-c4cc(Cl)ccc4OC(F)F)n3)n2)C1` [Example 37, N-[3-[5-chloro-2-(difluoromethoxy)phenyl]-1-[[2-[1-[2-(dimethylamino)ethyl]azetidin-3-yl]tetrazol-5-yl]methyl]pyrazol-4-yl]pyrazolo[1,5-a]pyrimidine-3-carboxamide], the IC50 in assay [1] came to 6.9 nM; in assay [2], 16 nM.

Consider `CN1CCC(N2CC(n3nnc(Cn4cc(NC(=O)c5cnn6cccnc56)c(-c5cc(OC(F)F)ccc5OC(F)F)n4)n3)C2)CC1` [Example 38, N-[3-[2,5-bis(difluoromethoxy)phenyl]-1-[[2-[1-(1-methyl-4-piperidyl)azetidin-3-yl]tetrazol-5-yl]methyl]pyrazol-4-yl]pyrazolo[1,5-a]pyrimidine-3-carboxamide], for which the IC50 in assay [1] is 21 nM; in assay [2], 18 nM.

With `CSc1ccc(OC(F)F)c(-c2nn(Cc3nnn(C4CN(CCCN(C)C)C4)n3)cc2NC(=O)c2cnn3cccnc23)c1` [Example 58, N-[3-[2-(difluoromethoxy)-5-methylsulfanyl-phenyl]-1-[[2-[1-[3-(dimethylamino)propyl]azetidin-3-yl]tetrazol-5-yl]methyl]pyrazol-4-yl]pyrazolo[1,5-a]pyrimidine-3-carboxamide], the IC50 in assay [1] is 51 nM; in assay [2] it was 57 nM.

For `CN(C)CCN1CCC(n2nnc(Cn3cc(NC(=O)c4cnn5cccnc45)c(-c4cc(OC(F)F)ccc4OC(F)F)n3)n2)CC1` [Example 61, N-[3-[2,5-bis(difluoromethoxy)phenyl]-1-[[2-[1-[2-(dimethylamino)ethyl]-4-piperidyl]tetrazol-5-yl]methyl]pyrazol-4-yl]pyrazolo[1,5-a]pyrimidine-3-carboxamide], the IC50 in assay [1] came to 33 nM; in assay [2] it was 32 nM.

`CN(C)[C@H]1C[C@H](N2CC(n3nnc(Cn4cc(NC(=O)c5cnn6cccnc56)c(-c5cc(OC(F)F)ccc5OC(F)F)n4)n3)C2)C1` [Example 70, N-[3-[2,5-bis(difluoromethoxy)phenyl]-1-[[2-[1-[3-(dimethylamino)cyclobutyl]azetidin-3-yl]tetrazol-5-yl]methyl]pyrazol-4-yl]pyrazolo[1,5-a]pyrimidine-3-carboxamide]: the IC50 in assay [1] turned out to be 30 nM; in assay [2], 27 nM.

`CN1CC(N2CC(n3nnc(Cn4cc(NC(=O)c5cnn6cccnc56)c(-c5cc(OC(F)F)ccc5OC(F)F)n4)n3)C2)C1` [Example 78, N-[3-[2,5-bis(difluoromethoxy)phenyl]-1-[[2-[1-(1-methylazetidin-3-yl)azetidin-3-yl]tetrazol-5-yl]methyl]pyrazol-4-yl]pyrazolo[1,5-a]pyrimidine-3-carboxamide; formic acid]: the IC50 in assay [1] turned out to be 62 nM; in assay [2], 40 nM.
